Activity calls are given as the source filed them.
How the values were obtained:
[1] = target: T1, Replicative DNA helicase DnaB (Mycobacterium tuberculosis, UniProt P9WMR3); experiment: DnaB intein splicing inhibitors, dose response, biochemical, cell-free fluorescence (AID 449749); format: functional
T1 sequence (P9WMR3 whole entry): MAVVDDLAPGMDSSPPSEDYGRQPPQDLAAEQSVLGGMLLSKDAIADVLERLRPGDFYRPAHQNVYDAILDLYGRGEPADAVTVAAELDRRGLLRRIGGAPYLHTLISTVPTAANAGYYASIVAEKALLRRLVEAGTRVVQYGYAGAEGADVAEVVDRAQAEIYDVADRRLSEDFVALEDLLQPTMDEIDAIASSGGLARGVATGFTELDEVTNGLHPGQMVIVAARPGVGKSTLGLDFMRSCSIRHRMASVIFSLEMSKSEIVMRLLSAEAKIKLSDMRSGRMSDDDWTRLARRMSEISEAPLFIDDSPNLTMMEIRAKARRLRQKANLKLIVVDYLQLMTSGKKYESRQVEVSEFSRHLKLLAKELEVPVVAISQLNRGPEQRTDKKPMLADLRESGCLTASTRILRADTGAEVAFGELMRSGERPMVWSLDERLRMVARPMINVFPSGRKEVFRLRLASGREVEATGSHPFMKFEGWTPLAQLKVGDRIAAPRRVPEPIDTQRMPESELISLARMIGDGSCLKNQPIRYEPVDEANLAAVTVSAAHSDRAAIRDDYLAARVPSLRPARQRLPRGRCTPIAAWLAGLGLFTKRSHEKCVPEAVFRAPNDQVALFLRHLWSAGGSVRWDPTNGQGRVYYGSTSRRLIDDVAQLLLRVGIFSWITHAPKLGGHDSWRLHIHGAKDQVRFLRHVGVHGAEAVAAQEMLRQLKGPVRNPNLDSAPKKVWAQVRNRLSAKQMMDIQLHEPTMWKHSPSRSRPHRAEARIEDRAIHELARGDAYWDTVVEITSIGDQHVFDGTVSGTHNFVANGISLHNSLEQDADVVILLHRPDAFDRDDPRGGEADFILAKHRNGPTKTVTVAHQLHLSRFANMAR

[2] = target: T2, Protein RecA (Mycobacterium tuberculosis, UniProt P9WHJ3); experiment: Fluorescence Cell-Free Homogeneous Dose Retest to Identify Inhibitors of RecA-Intein Splicing Activity. [Related pubchem assays (depositor defined):AID2097, AID2223, AID489010, AID492950]; format: functional
T2 sequence (P9WHJ3 whole entry): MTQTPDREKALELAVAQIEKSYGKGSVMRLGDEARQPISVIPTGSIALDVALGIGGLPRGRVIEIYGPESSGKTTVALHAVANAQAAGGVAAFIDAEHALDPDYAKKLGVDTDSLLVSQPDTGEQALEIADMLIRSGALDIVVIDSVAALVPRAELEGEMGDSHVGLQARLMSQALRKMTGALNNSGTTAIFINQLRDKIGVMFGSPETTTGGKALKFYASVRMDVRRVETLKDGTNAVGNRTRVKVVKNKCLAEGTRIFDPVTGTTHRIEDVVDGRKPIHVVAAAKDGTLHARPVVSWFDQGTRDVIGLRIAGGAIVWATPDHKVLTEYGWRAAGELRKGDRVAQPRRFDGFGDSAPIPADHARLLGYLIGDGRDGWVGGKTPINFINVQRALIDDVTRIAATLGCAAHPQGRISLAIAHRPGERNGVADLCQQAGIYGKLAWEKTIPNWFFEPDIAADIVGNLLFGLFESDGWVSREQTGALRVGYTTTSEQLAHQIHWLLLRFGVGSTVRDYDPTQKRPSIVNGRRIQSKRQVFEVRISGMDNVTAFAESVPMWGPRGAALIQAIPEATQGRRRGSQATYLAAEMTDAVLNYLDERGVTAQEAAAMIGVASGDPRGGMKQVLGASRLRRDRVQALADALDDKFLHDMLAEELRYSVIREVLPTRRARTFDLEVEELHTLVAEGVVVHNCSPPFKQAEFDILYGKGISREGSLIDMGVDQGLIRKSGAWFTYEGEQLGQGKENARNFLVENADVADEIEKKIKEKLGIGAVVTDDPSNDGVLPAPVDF

[3] = target: T3, Eukaryotic translation initiation factor 2-alpha kinase 3 (Homo sapiens, UniProt Q9NZJ5); experiment: Counterscreen assay for PERK inhibitors: Dose response cell-based high throughput screening assay to measure inhibition of PERK at 6 hours. [Related pubchem assays: 1522, 1416 ]; format: functional
T3 sequence (Q9NZJ5 whole entry): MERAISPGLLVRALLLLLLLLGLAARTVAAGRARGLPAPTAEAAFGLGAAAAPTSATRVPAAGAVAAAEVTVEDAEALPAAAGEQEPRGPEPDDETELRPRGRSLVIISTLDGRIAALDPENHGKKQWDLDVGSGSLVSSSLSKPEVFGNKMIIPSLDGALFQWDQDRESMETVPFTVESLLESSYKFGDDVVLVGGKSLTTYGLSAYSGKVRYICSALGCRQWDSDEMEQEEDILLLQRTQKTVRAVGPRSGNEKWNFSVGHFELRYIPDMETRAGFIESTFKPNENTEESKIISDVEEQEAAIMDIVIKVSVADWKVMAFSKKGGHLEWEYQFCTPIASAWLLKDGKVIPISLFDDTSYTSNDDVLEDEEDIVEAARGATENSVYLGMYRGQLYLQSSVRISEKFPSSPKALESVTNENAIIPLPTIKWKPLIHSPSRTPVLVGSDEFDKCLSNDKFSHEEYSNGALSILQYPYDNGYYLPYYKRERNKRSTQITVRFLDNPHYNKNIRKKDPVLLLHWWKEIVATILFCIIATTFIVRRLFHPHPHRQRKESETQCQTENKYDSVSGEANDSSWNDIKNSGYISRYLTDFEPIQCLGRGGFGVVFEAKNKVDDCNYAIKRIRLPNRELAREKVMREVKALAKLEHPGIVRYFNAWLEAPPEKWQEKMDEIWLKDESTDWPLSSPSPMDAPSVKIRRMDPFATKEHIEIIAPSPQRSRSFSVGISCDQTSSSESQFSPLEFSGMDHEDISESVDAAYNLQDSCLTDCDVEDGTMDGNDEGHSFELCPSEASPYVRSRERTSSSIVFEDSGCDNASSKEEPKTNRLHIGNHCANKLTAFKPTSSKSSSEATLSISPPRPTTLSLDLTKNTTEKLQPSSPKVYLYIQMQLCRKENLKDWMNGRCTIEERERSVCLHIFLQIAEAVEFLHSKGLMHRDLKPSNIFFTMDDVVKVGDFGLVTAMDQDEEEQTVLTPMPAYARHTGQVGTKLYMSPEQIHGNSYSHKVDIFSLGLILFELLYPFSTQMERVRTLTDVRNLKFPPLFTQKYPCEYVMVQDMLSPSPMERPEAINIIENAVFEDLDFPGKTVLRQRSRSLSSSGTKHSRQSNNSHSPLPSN

[4] = target: T3, Eukaryotic translation initiation factor 2-alpha kinase 3; experiment: Dose response cell-based high-throughput screening assay to measure PERK inhibition. [Related pubchem assays: 1416 ]; format: functional
[5] = test system: HEK293; experiment: inhibitors of LMP1-driven NF-kB reporter, dose response, cell-based, HEK293, luciferase, cherry-pick (AID 588343); format: functional; settings: Homo sapiens
[6] = test system: P388; experiment: cells; format: functional; settings: Mus musculus
[7] = test system: SN12K1; experiment: cells; format: functional; settings: Homo sapiens
[8] = test system: P388/ADR; experiment: cells; format: functional; settings: Mus musculus
[9] = target: T4, Corticotropin-releasing factor receptor 2/Corticotropin-releasing factor-binding protein (Homo sapiens, UniProt P24387+Q13324); experiment: activators of CRF receptor 2 with binding protein – uHTS hits, confirmation (AID 602473); format: functional; settings: read-out: EC50_Mean
T4 sequence (Q13324 whole entry): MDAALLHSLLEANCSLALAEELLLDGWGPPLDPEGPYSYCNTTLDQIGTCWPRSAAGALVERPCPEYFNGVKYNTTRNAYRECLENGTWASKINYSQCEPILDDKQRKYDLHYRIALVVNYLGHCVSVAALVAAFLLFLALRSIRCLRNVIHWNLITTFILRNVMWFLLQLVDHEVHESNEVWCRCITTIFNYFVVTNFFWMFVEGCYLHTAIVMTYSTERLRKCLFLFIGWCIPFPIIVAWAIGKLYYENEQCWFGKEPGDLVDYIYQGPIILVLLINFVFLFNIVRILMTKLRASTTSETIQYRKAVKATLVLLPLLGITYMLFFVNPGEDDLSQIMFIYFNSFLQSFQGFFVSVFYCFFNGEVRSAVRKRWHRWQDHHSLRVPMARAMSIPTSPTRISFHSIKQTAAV
T4 sequence (P24387 whole entry): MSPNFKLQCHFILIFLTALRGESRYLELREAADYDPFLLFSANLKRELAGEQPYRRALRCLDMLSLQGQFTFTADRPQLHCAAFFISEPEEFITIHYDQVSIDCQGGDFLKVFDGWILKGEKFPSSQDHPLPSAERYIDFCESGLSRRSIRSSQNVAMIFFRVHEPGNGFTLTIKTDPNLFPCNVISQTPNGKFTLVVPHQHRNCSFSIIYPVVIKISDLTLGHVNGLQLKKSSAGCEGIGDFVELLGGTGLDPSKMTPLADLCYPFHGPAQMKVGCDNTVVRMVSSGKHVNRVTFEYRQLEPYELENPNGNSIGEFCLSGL

[10] = target: T5, Heat shock factor protein 1 (Mus musculus, UniProt P38532); experiment: inhibition of MG132-induced HSE-luciferase signal, confirmation, cell-based, NIH3T3, luminescence, dose retest (AID 2382); format: functional;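 also: NIH3T3 fibroblasts with HSF1-driven luciferase reporter stressed by proteasome inhibitor MG132; luminescence from HSF1-driven luciferase expression after 8 hours of MG132 stress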
T5 sequence (P38532 whole entry): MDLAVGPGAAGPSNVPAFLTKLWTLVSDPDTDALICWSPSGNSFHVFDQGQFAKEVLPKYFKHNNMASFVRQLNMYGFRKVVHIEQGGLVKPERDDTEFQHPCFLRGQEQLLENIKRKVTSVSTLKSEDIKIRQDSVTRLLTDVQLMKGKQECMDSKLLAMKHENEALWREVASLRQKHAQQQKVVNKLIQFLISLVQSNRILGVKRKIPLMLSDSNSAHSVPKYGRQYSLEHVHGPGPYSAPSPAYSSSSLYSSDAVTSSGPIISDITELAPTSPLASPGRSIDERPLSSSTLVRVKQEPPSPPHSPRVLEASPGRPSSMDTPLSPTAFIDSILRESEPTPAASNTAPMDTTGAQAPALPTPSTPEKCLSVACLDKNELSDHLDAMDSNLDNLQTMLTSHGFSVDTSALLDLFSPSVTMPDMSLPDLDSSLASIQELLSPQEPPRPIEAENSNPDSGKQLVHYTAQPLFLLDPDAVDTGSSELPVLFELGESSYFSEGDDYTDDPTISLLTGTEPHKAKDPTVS

[11] = AlphaScreen signal interference compounds, dose response, artefact control for ARNT-TACC3 interaction inhibitor project, biochemical, luminescence, cherry-pick (AID 651705); format: functional;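 also: AlphaScreen bead proximity signal that flags compounds interfering with the detection technology; potency reflects signal decrease which marks the compound as an assay artifact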
[12] = target: Nonstructural protein 1 (Influenza A virus, UniProt Q194T2); format: functional, Influenza A virus (A/California/07/2009(H1N1))
Sequence of Nonstructural protein 1 (Q194T2 whole entry): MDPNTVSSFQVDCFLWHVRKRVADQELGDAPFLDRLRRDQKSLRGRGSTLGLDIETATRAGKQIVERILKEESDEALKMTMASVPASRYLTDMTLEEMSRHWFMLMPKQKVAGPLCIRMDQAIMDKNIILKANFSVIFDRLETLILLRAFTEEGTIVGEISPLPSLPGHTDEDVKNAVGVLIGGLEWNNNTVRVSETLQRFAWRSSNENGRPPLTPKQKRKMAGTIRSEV

| SMILES | AC50 [5] | GI50 [6] | GI50 [7] | GI50 [8] | also measured |
| --- | --- | --- | --- | --- | --- |
| CN1N=C(C(C)(C)C)CC1=O | – | – | – | – | AC50 [1]: 9.6 µM (active); EC50 [2]: 2.5 µM (active); EC50 [3]: > 55.7 µM (not active); EC50 [4]: > 55.7 µM (not active) |
| Cc1ccc(C(=O)Nc2cccc(C(F)(F)F)c2)cc1Nc1[nH]cnc2ncnc1-2 | 7.93 µM (active) | – | – | – | – |
| O=C1CSc2sc(=S)sc2S1 | – | 31.2 µM (inactive) | > 100 µM (inactive) | 27.7 µM (inactive) | – |
| CC(=O)OCC1OC(n2cc(F)c(=O)[nH]c2=O)C(N)C(OC(C)=O)C1OC(C)=O (stereo not given) | – | > 100 µM (inactive) | > 100 µM (inactive) | > 100 µM (inactive) | – |
| Cc1[nH]c(=O)[nH]c(=O)c1/C=C/C(=O)NC(CO)C[S+]([O-])C[S+](C)[O-] (stereo not given) | – | 19.4 µM (inactive) | 9.38 µM (inactive) | 23.2 µM (inactive) | – |
| C[S+]([O-])c1cc(=O)c2ccccc2s1 (stereo not given) | – | 1.83 µM (inactive) | 17.8 µM (inactive) | 2.66 µM (inactive) | – |
| CCN1C(=O)C(=CNc2ccc(N3CCOCC3)c(Br)c2)C(=O)N(CC)C1=S | > 350 µM (inactive) | – | – | – | EC50 [9]: > 53 µM (inactive); EC50 [10]: > 195 µM (not active) |
| C/C=C1\NC(=O)[C@H]2CSSCCC=C[C@H](CC(=O)N[C@H](C(C)C)C(=O)N2)OC(=O)[C@H](C(C)C)NC1=O | – | < 0.01 µM (active) | < 0.01 µM (active) | < 0.0241 µM (active) | – |
| Cc1ccccc1-n1nc(C)c2cc(C(=O)NC3CC3)sc21 | 196 µM (active) | – | – | – | – |
| O=C1Nc2ccccc2Nc2ccncc21 | – | > 100 µM (inactive) | > 100 µM (inactive) | > 31.6 µM (inactive) | – |
| N#CC1=C(N)Oc2c(ccc3cccnc23)C1c1ccncc1 (stereo not given) | – | – | – | – | AC50 [11]: 99.4 µM (active) |
| Cc1cc(O)nc(NN=Cc2cc(Br)ccc2O)n1 | 5.26 µM (active) | – | – | – | IC50 [12]: 12.2 µM (active) |
